This is an account of results in patent publication US9945862B2, “Biomarkers for predicting and assessing responsiveness of thyroid and kidney cancer subjects to lenvatinib compounds” (Eisai R&D Management Co., Ltd., priority 2011, dated 2018).

This assay concerns thyroglobulin. Description: Serum thyroglobulin, chemiluminescent immunometric assay (IMMULITE 2000), pre- and post-treatment with E7080. The format is in vivo, human. As for the experimental part: The serum for the thyroglobulin assays was collected within 72 hours prior to Day 1 of all cycles. 24 mg of E7080 was administered orally, daily continuously in 28-day cycles. Serum samples from 58 patients were used for thyroglobulin measurements. 6 mL of blood was drawn into red top tubes and let to clot at room temperature for at least 30 min. Within 60 minutes of sample collection, the tubes were centrifuged for 15 minutes at 20-25° C. at 1000×g. The supernatant was drawn without disturbing the pellet, put into sample tubes with serum filter and shipped frozen to the central lab for testing on the day of collection. The level of thyroglobulin was detected by a solid-phase, chemiluminescent immunometric assay (IMMULITE 2000 Thyroglobulin Assay System, Siemens) following standard operating procedure. In brief, serum thyroglobulin was captured by beads coated with anti-thyroglobulin antibody and detected using anti-thyroglobulin antibody linked to alkaline phosphatase. The level of serum thyroglobulin was calculated from a standard curve generated with lyophilized thyroglobulin. Serum thyroglobulin was stable for up to 2 months when stored frozen for the assay. The sensitivity of this assay was 0.2 ng/ml. From 58 patient samples, 50 pre- and post-treatment blood samples at maximum were used for these analyses. Dramatic changes in thyroglobulin levels were observed 29 days after the start of treatment with E7080.

The structures appear in SMILES notation.

Regarding `COc1cc2nccc(Oc3ccc(NC(=O)NC4CC4)c(Cl)c3)c2cc1C(N)=O` [E7080, 4-(3-chloro-4-(cyclopropylaminocarbonyl)aminophenoxy)-7-methoxy-6-quinolinecarboxamide], the “Thyroglobulin level ratio (median), Other group (SD or PD)” value (“Thyroglobulin level ratio … (SD or PD)” for short) (CYCLE2 DAY 1/CYCLE1 DAY 1) came to 0.288; the “Thyroglobulin level ratio … (SD or PD)” value (CYCLE3 DAY 1/CYCLE1 DAY 1) is reported as 0.221; the “Thyroglobulin level ratio … (SD or PD)” value (CYCLE4 DAY 1/CYCLE1 DAY 1) worked out at 0.227; the “Thyroglobulin level ratio … (SD or PD)” value (CYCLE5 DAY 1/CYCLE1 DAY 1) is on record as 0.332; the “Thyroglobulin level ratio … (SD or PD)” value (CYCLE6 DAY 1/CYCLE1 DAY 1) is listed as 0.198. Besides, the “Thyroglobulin level ratio (median), PR group” value (CYCLE2 DAY 1/CYCLE1 DAY 1) is on record as 0.195; the “Thyroglobulin level ratio (median), PR group” value (CYCLE3 DAY 1/CYCLE1 DAY 1) stood at 0.109; the “Thyroglobulin level ratio (median), PR group” value (CYCLE4 DAY 1/CYCLE1 DAY 1) was determined as 0.079; the “Thyroglobulin level ratio (median), PR group” value (CYCLE5 DAY 1/CYCLE1 DAY 1) was found to be 0.106; the “Thyroglobulin level ratio (median), PR group” value (CYCLE6 DAY 1/CYCLE1 DAY 1) was 0.078.
